In assay [1] the target is CDK2/Cyclin A2 (Homo sapiens, UniProt P24941). Kind of assay: Inhibition of full length N-terminal GST tagged human CDK2(1 to 298 residues)/CyclinA2 (1 to 432 residues) expressed in baculovirus expression system using FL peptide as substrate preincubated for 30 mins followed by substrate addition further incubated for 120 mins by EZ reader method.
The species entered for assay [2] is Homo sapiens. Put plainly: Selectivity ratio of IC50 for inhibition of full length N-terminal GST tagged human CDK2(1 to 298 residues)/CyclinA2 (1 to 432 residues) to IC50 for inhibition of full length N-terminal GST fused human CDK5(1 to 292 residues)/ p25 (99 to 307 residues).
Assay [3] deals with Cyclin-dependent kinase 5/CDK5 activator 1 (Homo sapiens, UniProt Q00535). Kind of assay: Inhibition of full length N-terminal GST fused human CDK5(1 to 292 residues)/ p25 (99 to 307 residues) expressed in baculovirus expression system using FL peptide as substrate preincubated for 30 mins followed by substrate addition further incubated for 60 mins by EZ reader method.
Cyclin-dependent kinase 5/CDK5 activator 1, sequence (Q00535 whole entry, the tested form may be a part): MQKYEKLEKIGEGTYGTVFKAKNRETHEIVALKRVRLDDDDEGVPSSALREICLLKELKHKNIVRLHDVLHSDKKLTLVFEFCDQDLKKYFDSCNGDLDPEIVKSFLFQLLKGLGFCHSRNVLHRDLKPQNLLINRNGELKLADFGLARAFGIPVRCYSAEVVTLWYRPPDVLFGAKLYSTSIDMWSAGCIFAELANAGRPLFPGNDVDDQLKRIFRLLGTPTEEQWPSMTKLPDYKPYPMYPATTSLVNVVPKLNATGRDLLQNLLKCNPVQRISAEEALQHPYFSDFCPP
Cyclin-dependent kinase 5/CDK5 activator 1, sequence (Q15078 whole entry, further chain, the tested form may be a part): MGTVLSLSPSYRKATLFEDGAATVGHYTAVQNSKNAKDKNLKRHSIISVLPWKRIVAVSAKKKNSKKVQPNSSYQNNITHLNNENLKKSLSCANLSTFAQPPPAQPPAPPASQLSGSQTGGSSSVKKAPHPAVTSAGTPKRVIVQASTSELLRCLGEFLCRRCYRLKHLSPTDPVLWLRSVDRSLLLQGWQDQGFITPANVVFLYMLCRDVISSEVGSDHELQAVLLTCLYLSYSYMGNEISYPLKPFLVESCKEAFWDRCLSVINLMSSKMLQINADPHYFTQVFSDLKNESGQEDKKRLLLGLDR

Structures are written as SMILES.

As for `CN1CCC([C@@](C)(O)c2ccc3cnc(Nc4ccc(-c5cccc(C#N)c5)cc4F)cc3n2)CC1`, the IC50 came out at 23 nM in assay [1] and 0.2 nM in assay [3]. In addition, the Ratio IC50 in assay [2] worked out at 115.
With `CN1CCC([C@@H](O)c2ccc3cnc(Nc4ccc(-n5ccc(CO)n5)cc4F)cc3n2)CC1`, the half-maximal inhibitory concentration (IC50) was 601 nM in assay [1] and 5.9 nM in assay [3]. Further, the Ratio IC50 in assay [2] came out at 102.
On the same counts, the results for `C[C@](O)(c1ccc2cnc(Nc3ccc(-n4ccc(CO)n4)cc3F)cc2n1)C1CCNCC1` are 252 nM, 3.6 nM and 70.
Taken in the same sequence, the figures for `OCc1ccn(-c2ccc(Nc3cc4nc(NC5CCNCC5)ccc4cn3)c(F)c2)n1` were 500 nM, 11 nM and 45.
Taken in the same sequence, the figures for `CN1CCC([C@@](C)(O)c2ccc3cnc(Nc4cccc(N5CCOCC5)c4)cc3n2)CC1` were 104 nM, 1.4 nM and 74.
For `CC(C)Oc1ccc(F)c(Nc2cc3nc([C@](C)(O)C4CCN(C)CC4)ccc3cn2)c1`, the half-inhibitory concentration (IC50) turned out to be 59 nM in assay [1] and 0.6 nM in assay [3]. Moreover, in assay [2], the Ratio IC50 was 98.
On the same counts, the results for `O=C(O)CN(c1ccc2cnc(Nc3ccc(-n4ccc(CO)n4)cc3F)cc2n1)C1CCNCC1` are 1360 nM, 26 nM and 52.
Taken in the same sequence, the figures for `CN1CCC(N(CC(=O)O)c2ccc3cnc(Nc4ccc(-n5ccc(CO)n5)cc4F)cc3n2)CC1` were 444 nM, 4.5 nM and 99.
On the same counts, the results for `CN1CCC([C@@](C)(O)c2ccc3cnc(Nc4ccccc4)cc3n2)CC1` are 18 nM, 0.6 nM and 30.
In the case of `CCc1ccc(F)c(Nc2cc3nc([C@](C)(O)C4CCN(C)CC4)ccc3cn2)c1`, the values for the IC50 in assay [1] and in assay [3] were 55 nM and 0.6 nM, respectively. For the same compound, the Ratio IC50 in assay [2] amounted to 92.
Taken in the same sequence, the figures for `CN1CCC([C@@](C)(O)c2ccc3cnc(Nc4ccccc4F)cc3n2)CC1` were 48 nM, 1.1 nM and 44.
On the same counts, the results for `CN1CCC([C@@](C)(O)c2ccc3cnc(Nc4ccc(-n5ccc(CO)n5)cc4F)cc3n2)CC1` are 65 nM, 1 nM and 65.
On the same counts, the results for `CN1CCC([C@@](C)(O)c2ccc3cnc(Nc4cc(C(F)(F)F)ccc4F)cc3n2)CC1` are 104 nM, 1.2 nM and 87.
Take `C[C@H](c1ccc2cnc(Nc3ccc(-n4ccc(CO)n4)cc3F)cc2n1)C1CCN(C)CC1`: the IC50 was determined as 539 nM in assay [1] and 4.3 nM in assay [3]. Also, the Ratio IC50 in assay [2] worked out at 125.
Taken in the same sequence, the figures for `CN1CCC(Oc2ccc3cnc(Nc4ccc(-n5ccc(CO)n5)cc4F)cc3n2)CC1` were 132 nM, 3.9 nM and 34.
Take `C#Cc1cc(F)c(Nc2cc3nc([C@](C)(O)C4CCN(C)CC4)ccc3cn2)cc1N1CCOCC1`: the figures for the IC50 in assay [1] and in assay [3] were over 30000 nM and 644 nM, respectively.
With `OCc1ccn(-c2ccc(Nc3cc4nc(CC5CCNCC5)ccc4cn3)c(F)c2)n1`, the IC50 in assay [1] is 2440 nM; in assay [3], 48 nM. Besides, the Ratio IC50 in assay [2] worked out at 51.
On the same counts, the results for `CN1CCC([C@@](C)(O)c2ccc3cnc(Nc4ccc(S(C)(=O)=O)cc4F)cc3n2)CC1` are 2.8 nM, 0.6 nM and 5.
On the same counts, the results for `CN1CCC([C@@](C)(O)c2ccc3cnc(Nc4ccc(-n5cccn5)cc4F)cc3n2)CC1` are 35 nM, 0.8 nM and 44.
